Laboratory results: patent US9493501B2 (MEMORIAL SLOAN-KETTERING CANCER CENTER, priority 2011, dated 2016)

Molecular target: T1, SETD2 (1347-1711) (Homo sapiens, UniProt Q9BYW2)
T1 sequence (Q9BYW2 1347-1711): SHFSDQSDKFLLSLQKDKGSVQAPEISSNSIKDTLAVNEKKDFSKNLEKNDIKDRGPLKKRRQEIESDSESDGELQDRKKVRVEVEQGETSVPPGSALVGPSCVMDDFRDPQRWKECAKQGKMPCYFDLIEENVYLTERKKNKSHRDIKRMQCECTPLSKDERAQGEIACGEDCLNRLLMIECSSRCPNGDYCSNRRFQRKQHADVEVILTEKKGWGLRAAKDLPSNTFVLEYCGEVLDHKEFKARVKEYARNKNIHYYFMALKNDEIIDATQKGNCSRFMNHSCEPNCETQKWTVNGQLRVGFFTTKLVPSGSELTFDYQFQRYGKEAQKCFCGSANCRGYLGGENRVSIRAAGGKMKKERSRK
Assay: Filter-paper methylation assay, SETD2
Format: biochemical

In the case of `Nc1ncnc2c1ncn2C1OC(CC(CCC(N)C(=O)O)NCc2ccccc2)C(O)C1O` (stereo not shown) [Compound 110], the IC50 is reported as 500 nM.
